Results taken from US20260007673A1, “ROCK2 INHIBITORS FOR THE TREATMENT OF VIRAL INFECTIONS” (GRAVITON BIOSCIENCE BV, priority 2022, published 2026).
“Also recorded” adds a separate entry of the source.

Tests used:
SARS-CoV-2 [1] = assay: 7-day clinical trial in patients with mild to moderate COVID-19; type: in vivo
SARS-CoV-2 [2] = assay: In vitro SARS-CoV-2 model in immortalized human airway epithelial cells (Calu-3), viral load by qRT-PCR; type: cell-based; conditions: for inhibition of viral replication (viral titers): 10 μM
Description: A 50 mM stock solution of Compound 2 (in DMSO) was diluted using PBS to concentrations of 100, 75, 50, 25, 10, 5, 1, 0.3, 0.1, and 0.03 μM. About 30,000 immortalized human airway epithelial cells (Calu-3) (see, FIG. 1-10) or primary human airway epithelial cells (Normal Human Small Airway Epithelial Cells; Sigma) (see, FIGS. 11-12) were grown to about 100,000 cells per well in a 96-well format. The cells were challenged with 10^2 or 10^3 PFU SARS-CoV-2 (standard CDC SARS-CoV-2 strain) in triplicate and incubated for 6 h at 37° C., followed by washing. The cells were then treated with Compound 2 or negative control by adding 10 μL of a solution of Compound 2 (0.03-100 μM) or negative control solution (DMSO in PBS) in triplicate and incubating for 2 h at 37° C. A positive control consisted of remdesivir (RDV; 10 μM). An additional control (3 wells) was treated with Compound 2 at the highest concentration, but not challenged with virus. The cells were maintained until the second endpoint readout at 48 h (the first occurring at 24 h post-infection). In some instances, the cellular media was replaced 24 h after infection with untreated culture medium (“unmediated medium”) or culture medium containing the positive control (RDV) or Compound 2 (“mediated medium”), see, FIG. 10.
Viral infection/load was analyzed by qPCR (qRT-PCR). RNA from cells was extracted with TRIzol reagent (Thermo Fisher) according to manufacturer's instructions. Viral or host RNA levels in the supernatant were determined using the TaqPath™ 1-Step RT-qPCR Master Mix (Thermo Fisher) on a CFX Connect Real-Time System (Bio-Rad) instrument using the following primers: Fwd: 5′-[…]-3′; Rev. 5′-[…]-3′.
Datasets were analyzed and plotted in GraphPad Prism (version 9.0.2). Analytic simulations of dose-response curves using the median-effect principle and mass-action Law were carried out using CompuSyn (https://www.combosyn.com/).

[3] = tested on: SARS-CoV-2 2019-nCoV/USA-WA1/2020 strain; assay: Lung viral load by qPCR in infected human ACE2 transgenic mice; type: in vivo; conditions: mice infected with 100 or 1000 pfu; 300 mg/kg daily oral gavage; 7, 14, 21 days; vs vehicle and remdesivir (FIGS. 13-14)
[4] = tested on: SARS-CoV-2 infected lung tissue; assay: Lung fibrosis by H&E staining in infected human ACE2 transgenic mice; type: in vivo; conditions: infected mouse lung tissue 7, 14, 21 days after infection; vs vehicle (FIG. 16)
SARS-CoV-2 [5] = assay: In vitro SARS-CoV-2 model in primary human airway epithelial cells, viral load by qRT-PCR; type: cell-based; conditions: 5 μM and 25 μM, read at 24 and 48 hours (FIGS. 11-12)
Description: A 50 mM stock solution of Compound 2 (in DMSO) was diluted using PBS to concentrations of 100, 75, 50, 25, 10, 5, 1, 0.3, 0.1, and 0.03 μM. About 30,000 immortalized human airway epithelial cells (Calu-3) (see, FIG. 1-10) or primary human airway epithelial cells (Normal Human Small Airway Epithelial Cells; Sigma) (see, FIGS. 11-12) were grown to about 100,000 cells per well in a 96-well format. The cells were challenged with 10^2 or 10^3 PFU SARS-CoV-2 (standard CDC SARS-CoV-2 strain) in triplicate and incubated for 6 h at 37° C., followed by washing. The cells were then treated with Compound 2 or negative control by adding 10 μL of a solution of Compound 2 (0.03-100 μM) or negative control solution (DMSO in PBS) in triplicate and incubating for 2 h at 37° C. A positive control consisted of remdesivir (RDV; 10 μM). […] The cells were maintained until the second endpoint readout at 48 h (the first occurring at 24 h post-infection). […]
Viral infection/load was analyzed by qPCR (qRT-PCR). […] Viral or host RNA levels in the supernatant were determined using the TaqPath™ 1-Step RT-qPCR Master Mix (Thermo Fisher) on a CFX Connect Real-Time System (Bio-Rad) instrument using the following primers: Fwd: 5′-[…]-3′; Rev. […]
Datasets were analyzed and plotted in GraphPad Prism (version 9.0.2). […]

Calu-3 cells = assay: Cellular toxicity: LDH assay; type: cell-based, human; conditions: 0.03-100 μM, LDH assay at 48 h (FIGS. 4-5)
Description: The toxicity of Compound 2 was measured at concentrations of 0.1, 0.3, 1, 10, 25, 50, 75, and 100 μM in Calu-3 cells by LDH ([…] dehydrogenase) assay (Clontech) according to the manufacturer's instructions. A positive control consisted of saponin (0.5%). A negative control consisted of DMSO (0.2%).

Cn1c(C(=O)N2CC(F)(F)C2)cc2ccc(-c3nccc(Nc4ccc(-c5cn[nH]c5)cc4)n3)cc21 [Compound 2, (6-(4-((4-(1H-pyrazol-4-yl)phenyl)amino)pyrimidin-2-yl)-1-methyl-1H-indol-2-yl)(3,3-difluoroazetidin-1-yl)methanone]
clinical efficacy in treating mild to moderate COVID-19 (SARS-CoV-2 [1]; 200 mg or 400 mg once daily for 7 days plus standard of care (FIGS. 17-20)): clinical efficacy
viral titers, as negative conversion rates of SARS-CoV-2 nucleic acid detection (SARS-CoV-2 [1]; 200 mg or 400 mg once daily for 7 days, relative to Control (FIG. 18)): lower viral titers
inflammation, as levels of interleukin 6 (SARS-CoV-2 [1]; 200 mg/day and 400 mg/day (FIG. 19)): reduced levels of inflammation
inflammation, as levels of C-reactive protein (CRP) (SARS-CoV-2 [1]; 200 mg/day and 400 mg/day (FIG. 20)): reduced levels of inflammation
relief rate of sustained clinical symptoms (SARS-CoV-2 [1]; 400 mg once daily for 7 days, relative to Control and to 200 mg (FIG. 17)): substantial improvement
inhibition of viral replication (viral titers) (SARS-CoV-2 [2]; Calu-3, read at 24 and 48 hours, compared to negative control (0.1% DMSO) and positive control (RDV) (FIGS. 6-7)): inhibiting viral replication
inhibition of viral replication (viral titers) (SARS-CoV-2 [2]; Calu-3, read at 24 and 48 hours, treated 0, 2, 4, 8 h post-infection, compared to control (FIGS. 1-3)): inhibiting viral replication
dose response of inhibition of viral replication (SARS-CoV-2 [2]; Calu-3, 1, 5, 10 and 25 μM, read at 24 and 48 hours, given 0-10 h after infection (FIGS. 8A-9F)): Dose responses were observed at all time points
viral concentration after repeat dosing (SARS-CoV-2 [2]; Calu-3, 48 h after infection, medium containing compound replenished at 24 h (FIG. 10)): further decreased viral concentration
viral titers of SARS-CoV-2 (SARS-CoV-2 [2]; immortalized human airway epithelial cells infected with SARS-CoV-2, FIGS. 1-12): substantially reduce viral titers
viral load in the lung [3]: significantly reduced viral load
pulmonary fibrosis (histology) [4]: reducing pulmonary fibrosis; also recorded: reduces lung fibrosis
efficacy against SARS-CoV-2 infection (viral concentration) (SARS-CoV-2 [5]): efficacy at 5 μM and 25 μM concentrations
cellular toxicity by LDH (Calu-3 cells): low cellular toxicity
